Results taken from patent US9969688B2, “Roflumilast prodrugs” (HISAMITSU PHARMACEUTICAL CO., INC., priority 2014, dated 2018).
Converted amounts (≈) assume the structure as drawn.

Experiments:
[1] = Evaluation test of water solubility (saturated solubility); assay type: physicochemical; details: phosphate buffer (pH 7); for solubility at 30 min: aqueous buffer, thermodynamic from solid, ultrasonicated 30 minutes
Protocol: An excessive amount of a test compound was added to 10 mL of phosphate buffer (pH 7) and the resultant was ultrasonicated for 30 minutes. The resulting suspension was filtered and 0.5 mL of acetonitrile was added to 0.5 mL of the filtrate to obtain a test solution. The concentration of the test compound in the test solution was determined by high performance liquid chromatography to calculate the saturated solubility. Roflumilast was used in Comparative Example 1.

[2] = Evaluation test of skin permeability (Franz diffusion cell); assay type: in vitro ADME; details: hairless mouse skin; for Jmax (maximum skin permeation rate) / Cumulative Amount of Permeation for 24 hours: 1 w/w % in dimethyl sulfoxide, 100 μL, 32° C.
Protocol: Skin was excised from the back of a hairless mouse and the section of the skin was placed in a Franz diffusion cell (glass cell) so that a solution of each of test compounds (compounds of Examples, Comparative Example, or Reference Examples) was contacted with the epidermal side of the section of the skin (applied area: 1 cm^2). Phosphate buffered physiological saline (PBS) was used as a flow solution. The flow rate was set to 5 mL/hour and the temperature of thermoregulated bath was set to 32° C. Next, dimethyl sulfoxide was added to achieve the concentration of the test compound of 1 w/w % and the resultant was stirred thoroughly to prepare a solution of the test compound. The donor chamber of the Franz diffusion cell was charged with 100 μL of the resulting solution of the test compound. The flow solution was sampled every 2 hours until 24 hours after the charge of the test compound solution. The flow solutions sampled every 2 hours were diluted two-fold by adding acetonitrile and the diluted solution was centrifuged to give supernatants as an HPLC analytical sample. Each of the resulting analytical samples was analyzed by high performance liquid chromatography to calculate the maximum skin permeation rate (Jmax) and the cumulative amount of permeation for 24 hours. Roflumilast was used in Comparative Example 1.

[3] = tested on: human liver enzyme fraction; assay: In vitro metabolism test (metabolic rate into roflumilast); assay type: in vitro ADME; details: treated with human liver enzyme fractions
Protocol: A human liver enzyme fraction was added to 100 mmol/L Tris-HCl buffer containing coenzymes (NADPH-producing) so as to achieve the concentration of 0.5 mg protein/mL and the resultant was pre-incubated at 37° C. for 5 minutes. A test compound was added to this solution so as to achieve the concentration of 0.1 μmol/L and the resultant was incubated at 37° C. for an hour. The reaction was then stopped by adding water-cooled acetonitrile. The resulting solution was filtered and then quantified by using LC-MS/MS to calculate the metabolic rate (%) into roflumilast. It is noted that “with heat treatment” in Table 1 means using a human liver enzyme fraction subjected to heat treatment before adding to thereby inactivate a metabolic enzyme therein.
Numerical values in Table 1 represent metabolic rates (%) into rofiumilast. […] Roflumilast was not produced when metabolic enzymes were inactivated by heat treatments prior to using the human liver enzyme fractions.

Row | Compound | solubility at 30 min [1] | Ratio to Roflumilast (saturated solubility) [1] | Jmax (maximum skin permeation rate) [2] | Cumulative Amount of Permeation for 24 hours [2] | skin permeability (in words) ([2]; up to 24 hours) | production of roflumilast by human liver enzyme fractions (in words) [3]
1 | O=C(Nc1c(Cl)cncc1Cl)c1ccc(OC(F)F)c(OCC2CC2)c1 [Comparative Example 1, N-(3,5-dichloropyrid-4-yl)-3-cyclopropylmethoxy-4-difluoromethoxybenzamide, reference compound] | 0.373 µg/mL (≈ 0.925 µM) | 1 | 0.0 μg/cm^2/hr | 0.0 μg/cm^2 | no skin permeability even after 24 hours | 
2 | COCN(C(=O)c1ccc(OC(F)F)c(OCC2CC2)c1)c1c(Cl)cncc1Cl [Example 6, N-(3,5-dichloropyrid-4-yl)-N-methoxymethyl-3-cyclopropylmethoxy-4-difluoromethoxybenzamide] |  |  | 1.2 μg/cm^2/hr | 17.6 μg/cm^2 |  | 
3 | NC(=O)CN(C(=O)c1ccc(OC(F)F)c(OCC2CC2)c1)c1c(Cl)cncc1Cl [Reference Example 1, N-carbamoylmethyl-N-(3,5-dichloropyrid-4-yl)-3-cyclopropylmethoxy-4-difluoromethoxybenzamide, reference compound] | 16.6 µg/mL (≈ 36 µM) | 44.5 | 0.9 μg/cm^2/hr | 7.2 μg/cm^2 |  | did not produce roflumilast
4 | O=C(O)CN(C(=O)c1ccc(OC(F)F)c(OCC2CC2)c1)c1c(Cl)cncc1Cl [Reference Example 2, N-carboxymethyl-N-(3,5-dichloropyrid-4-yl)-3-cyclopropylmethoxy-4-difluoromethoxybenzamide, reference compound] | 612 µg/mL (≈ 1330 µM) | 1640.2 | 9.5 μg/cm^2/hr | 56.9 μg/cm^2 |  | did not produce roflumilast
5 | N#CCN(C(=O)c1ccc(OC(F)F)c(OCC2CC2)c1)c1c(Cl)cncc1Cl [Example 1, N-cyanomethyl-N-(3,5-dichloropyrid-4-yl)-3-cyclopropylmethoxy-4-difluoromethoxybenzamide] | 1.64 µg/mL (≈ 3.72 µM) | 4.4 | 1.2 μg/cm^2/hr | 12.1 μg/cm^2 |  | 
6 | O=C(c1ccc(OC(F)F)c(OCC2CC2)c1)N(CCO)c1c(Cl)cncc1Cl [Example 2, N-(3,5-dichloropyrid-4-yl)-N-(2-hydroxyethyl)-3-cyclopropylmethoxy-4-difluoromethoxybenzamide] | 12.5 µg/mL (≈ 27.9 µM) | 33.4 | 10.7 μg/cm^2/hr | 157.7 μg/cm^2 |  | 

Results, then the compound that gave them:

Row | solubility at 30 min [1] | Ratio to Roflumilast (saturated solubility) [1] | Jmax (maximum skin permeation rate) [2] | Cumulative Amount of Permeation for 24 hours [2] | skin permeability (in words) ([2]; up to 24 hours) | production of roflumilast by human liver enzyme fractions (in words) [3] | Compound
7 | 9.7 µg/mL (≈ 23.2 µM) | 26.0 | 3.2 μg/cm^2/hr | 51.0 μg/cm^2 |  |  | CN(C(=O)c1ccc(OC(F)F)c(OCC2CC2)c1)c1c(Cl)cncc1Cl [Example 3, N-(3,5-dichloropyrid-4-yl)-N-methyl-3-cyclopropylmethoxy-4-difluoromethoxybenzamide]
8 |  |  | 8.5 μg/cm^2/hr | 163.5 μg/cm^2 |  |  | O=C(c1ccc(OC(F)F)c(OCC2CC2)c1)N(CCCO)c1c(Cl)cncc1Cl [Example 5, N-(3,5-dichloropyrid-4-yl)-N-(3-hydroxypropan-1-yl)-3-cyclopropylmethoxy-4-difluoromethoxybenzamide]
